In ChEMBL document CHEMBL4229455, “Synthesis and anticancer activity of novel bisindolylhydroxymaleimide derivatives with potent GSK-3 kinase inhibition” (Bioorg Med Chem, 2018):

Experiments:
Format in all cases: functional
HOP-62 [1] = assay: Cytotoxicity against human HOP62 cells assessed as cell growth at 0.1 uM after 48 hrs by SRB assay relative to control; settings: HOP-62, 48 h, read-out: Activity
T47D [2] = assay: Cytotoxicity against human T47D cells assessed as cell growth at 100 uM after 48 hrs by SRB assay relative to control; settings: read-out: Activity
LOX IMVI [3] = assay: Cytotoxicity against human LOXIMVI cells assessed as cell growth at 1 uM after 48 hrs by SRB assay relative to control; settings: read-out: Activity
MDA-MB-231 [4] = assay: Cytotoxicity against human MDA-MB-231 cells after 48 hrs by SRB assay; settings: MDA-MB-231, 48 h
IGROV-1 [5] = assay: Cytotoxicity against human IGROV1 cells assessed as cell growth at 100 uM after 48 hrs by SRB assay relative to control; settings: IGROV-1, 48 h, read-out: Activity
NCI-H226 = assay: Cytotoxicity against human NCI-H226 cells assessed as cell growth at 0.01 uM after 48 hrs by SRB assay relative to control; settings: NCI-H226, 48 h, read-out: Activity
HT-29 = assay: Cytotoxicity against human HT-29 cells assessed as cell growth at 0.1 uM after 48 hrs by SRB assay relative to control; settings: HT-29, 48 h, read-out: Activity
A498 = assay: Cytotoxicity against human A498 cells assessed as cell growth at 100 uM after 48 hrs by SRB assay relative to control; settings: A498, 48 h, read-out: Activity
HOP-62 [6] = assay: Cytotoxicity against human HOP62 cells after 48 hrs by SRB assay; settings: HOP-62, 48 h; for CC50: read-out: LC50 (the source's name)
HCT-15 [7] = assay: Cytotoxicity against human HCT15 cells after 48 hrs by SRB assay; settings: HCT-15, 48 h
KM12 [8] = assay: Cytotoxicity against human KM12 cells assessed as cell growth at 100 uM after 48 hrs by SRB assay relative to control; settings: KM12, 48 h, read-out: Activity
LOX IMVI [9] = assay: Cytotoxicity against human LOXIMVI cells assessed as cell growth at 0.1 uM after 48 hrs by SRB assay relative to control; settings: read-out: Activity
OVCAR-5 [10] = assay: Cytotoxicity against human OVCAR5 cells assessed as cell growth at 100 uM after 48 hrs by SRB assay relative to control; settings: OVCAR-5, 48 h, read-out: Activity
NCI-H460 [11] = assay: Cytotoxicity against human NCI-H460 cells assessed as cell growth at 1 uM after 48 hrs by SRB assay relative to control; settings: NCI-H460, 48 h, read-out: Activity
T47D [12] = assay: Cytotoxicity against human T47D cells assessed as cell growth at 0.1 uM after 48 hrs by SRB assay relative to control; settings: read-out: Activity
SW-620 = assay: Cytotoxicity against human SW620 cells after 48 hrs by SRB assay; settings: SW-620, 48 h
HCT-15 [13] = assay: Cytotoxicity against human HCT15 cells assessed as cell growth at 0.01 uM after 48 hrs by SRB assay relative to control; settings: HCT-15, 48 h, read-out: Activity
A549 = assay: Cytotoxicity against human A549 cells after 48 hrs by SRB assay; settings: A549, 48 h; for CC50: read-out: LC50 (the source's name)
OVCAR-3 = assay: Cytotoxicity against human OVCAR3 cells assessed as cell growth at 1 uM after 48 hrs by SRB assay relative to control; settings: OVCAR-3, 48 h, read-out: Activity
SNB-19 = assay: Cytotoxicity against human SNB19 cells assessed as cell growth at 100 uM after 48 hrs by SRB assay relative to control; settings: SNB-19, 48 h, read-out: Activity
KM12 [14] = assay: Cytotoxicity against human KM12 cells assessed as cell growth at 0.1 uM after 48 hrs by SRB assay relative to control; settings: KM12, 48 h, read-out: Activity
UACC-62 = assay: Cytotoxicity against human UACC62 cells after 48 hrs by SRB assay; settings: UACC-62, 48 h
SK-MEL-28 = assay: Cytotoxicity against human SK-MEL-28 cells assessed as cell growth at 0.01 uM after 48 hrs by SRB assay relative to control; settings: SK-MEL-28, 48 h, read-out: Activity
NCI/ADR-RES = assay: Cytotoxicity against human NCI-ADR-RES cells assessed as cell growth at 0.01 uM after 48 hrs by SRB assay relative to control; settings: read-out: Activity
NCI-H23 = assay: Cytotoxicity against human NCI-H23 cells assessed as cell growth at 0.01 uM after 48 hrs by SRB assay relative to control; settings: NCI-H23, 48 h, read-out: Activity
SK-OV-3 = assay: Cytotoxicity against human SKOV3 cells after 48 hrs by SRB assay; settings: SK-OV-3, 48 h
CAKI-1 = assay: Cytotoxicity against human Caki1 cells assessed as cell growth at 100 uM after 48 hrs by SRB assay relative to control; settings: CAKI-1, 48 h, read-out: Activity
OVCAR-5 [15] = assay: Cytotoxicity against human OVCAR5 cells assessed as cell growth at 1 uM after 48 hrs by SRB assay relative to control; settings: OVCAR-5, 48 h, read-out: Activity
TK-10 = assay: Cytotoxicity against human TK10 cells after 48 hrs by SRB assay; settings: TK-10, 48 h; for CC50: read-out: LC50 (the source's name)
BT-549 = assay: Cytotoxicity against human BT549 cells assessed as cell growth at 1 uM after 48 hrs by SRB assay relative to control; settings: BT-549, 48 h, read-out: Activity
NCI-H460 [16] = assay: Cytotoxicity against human NCI-H460 cells assessed as cell growth at 0.01 uM after 48 hrs by SRB assay relative to control; settings: NCI-H460, 48 h, read-out: Activity
IGROV-1 [17] = assay: Cytotoxicity against human IGROV1 cells assessed as cell growth at 1 uM after 48 hrs by SRB assay relative to control; settings: IGROV-1, 48 h, read-out: Activity
SN12C = assay: Cytotoxicity against human SN12C cells assessed as cell growth at 0.1 uM after 48 hrs by SRB assay relative to control; settings: read-out: Activity
NCI-H522 = assay: Cytotoxicity against human NCI-H522 cells after 48 hrs by SRB assay; settings: NCI-H522, 48 h
SF-295 = assay: Cytotoxicity against human SF295 cells assessed as cell growth at 100 uM after 48 hrs by SRB assay relative to control; settings: SF-295, 48 h, read-out: Activity
M14 = assay: Cytotoxicity against human M14 cells assessed as cell growth at 100 uM after 48 hrs by SRB assay relative to control; settings: M14, 48 h, read-out: Activity
MDA-MB-231 [18] = assay: Cytotoxicity against human MDA-MB-231 cells assessed as cell growth at 0.1 uM after 48 hrs by SRB assay relative to control; settings: MDA-MB-231, 48 h, read-out: Activity

## N#CCCCCCn1cc(C2=C(c3cn(CCCCCC#N)c4ccccc34)C(=O)N(O)C2=O)c2ccccc21
HOP-62 [1]
  growth at 0.1 µM: 85%
T47D [2]
  growth at 100 µM: -7%
LOX IMVI [3]
  growth at 1 µM: 71%
MDA-MB-231 [4]
  GI50: 4.26 µM
  LC50 (50% lethal concentration): > 100 µM
  TGI: 64.7 µM
IGROV-1 [5]
  growth at 100 µM: -5%
NCI-H226
  growth at 0.01 µM: 95%
HT-29
  growth at 0.1 µM: 103%
A498
  growth at 100 µM: -1%
HOP-62 [6]
  GI50: 7.94 µM
  TGI: > 100 µM
  CC50: > 100 µM
HCT-15 [7]
  GI50: 3.88 µM
  LC50: > 100 µM
  TGI: > 100 µM
KM12 [8]
  growth at 100 µM: -23%
LOX IMVI [9]
  growth at 0.1 µM: 90%
OVCAR-5 [10]
  growth at 100 µM: 18%
NCI-H460 [11]
  growth at 1 µM: 101%
T47D [12]
  growth at 0.1 µM: 89%
SW-620
  GI50: 4.76 µM
  LC50: > 100 µM
  TGI: > 100 µM
HCT-15 [13]
  growth at 0.01 µM: 93%
A549
  GI50: 10.4 µM
  TGI: > 100 µM
  CC50: > 100 µM
OVCAR-3
  growth at 1 µM: 101%
SNB-19
  growth at 100 µM: 20%
KM12 [14]
  growth at 0.1 µM: 97%
UACC-62
  GI50: 3.23 µM
  LC50: 84.4 µM
  TGI: 16 µM
SK-MEL-28
  growth at 0.01 µM: 102%
NCI/ADR-RES
  growth at 0.01 µM: 100%
NCI-H23
  growth at 0.01 µM: 95%
SK-OV-3
  GI50: 7.78 µM
  LC50: > 100 µM
  TGI: > 100 µM
CAKI-1
  growth at 100 µM: 16%
OVCAR-5 [15]
  growth at 1 µM: 91%
TK-10
  GI50: 22.2 µM
  TGI: > 100 µM
  CC50: > 100 µM
BT-549
  growth at 1 µM: 89%
NCI-H460 [16]
  growth at 0.01 µM: 104%
IGROV-1 [17]
  growth at 1 µM: 104%
SN12C
  growth at 0.1 µM: 94%
NCI-H522
  GI50: 2.59 µM
  LC50: > 100 µM
  TGI: 10.5 µM
SF-295
  growth at 100 µM: -37%
M14
  growth at 100 µM: -25%
MDA-MB-231 [18]
  growth at 0.1 µM: 91%

## Cn1cc(C2=C(c3cn(C)c4ncccc34)C(=O)NC2=O)c2ccccc21
HOP-62 [1]
  growth at 0.1 µM: 103%
T47D [2]
  growth at 100 µM: -11%
LOX IMVI [3]
  growth at 1 µM: 74%
MDA-MB-231 [4]
  GI50: 4.67 µM
  TGI: 38.8 µM
IGROV-1 [5]
  growth at 100 µM: -10%
NCI-H226
  growth at 0.01 µM: 99%
HT-29
  growth at 0.1 µM: 107%
A498
  growth at 100 µM: -49%
HOP-62 [6]
  GI50: 3.69 µM
  TGI: 36.7 µM
  CC50: > 100 µM
HCT-15 [7]
  GI50: 3.49 µM
  TGI: 60.5 µM
KM12 [8]
  growth at 100 µM: -86%
LOX IMVI [9]
  growth at 0.1 µM: 92%
OVCAR-5 [10]
  growth at 100 µM: -15%
NCI-H460 [11]
  growth at 1 µM: 89%
T47D [12]
  growth at 0.1 µM: 100%
SW-620
  GI50: 3.61 µM
  TGI: 32.6 µM
HCT-15 [13]
  growth at 0.01 µM: 100%
A549
  GI50: 3.49 µM
  TGI: 33.2 µM
  CC50: > 100 µM
OVCAR-3
  growth at 1 µM: 98%
SNB-19
  growth at 100 µM: -11%
KM12 [14]
  growth at 0.1 µM: 102%
UACC-62
  GI50: 4.22 µM
  TGI: 22 µM
SK-MEL-28
  growth at 0.01 µM: 97%
NCI/ADR-RES
  growth at 0.01 µM: 101%
NCI-H23
  growth at 0.01 µM: 100%
SK-OV-3
  GI50: 2.09 µM
  TGI: 8 µM
CAKI-1
  growth at 100 µM: -10%
OVCAR-5 [15]
  growth at 1 µM: 103%
TK-10
  GI50: 4.82 µM
  TGI: 43.9 µM
  CC50: > 100 µM
BT-549
  growth at 1 µM: 85%
NCI-H460 [16]
  growth at 0.01 µM: 97%
IGROV-1 [17]
  growth at 1 µM: 117%
SN12C
  growth at 0.1 µM: 87%
NCI-H522
  GI50: 5.05 µM
  TGI: 32.4 µM
SF-295
  growth at 100 µM: -20%
M14
  growth at 100 µM: -67%
MDA-MB-231 [18]
  growth at 0.1 µM: 104%
